Test results reported in ChEMBL document CHEMBL1201862, “PubChem BioAssay data set” (2004).
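All cell lines were grown in 96-well plates and treated with compound for 48 hours. The concentration for 50% growth inhibition is given as GI50.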 The source made the active and inactive calls. Rule as the data show it: active = GI50 up to about 1.1 µM and inactive = higher.

How the values were obtained:
Assay in all cases: NCI-60 cell line screen, 48 h
OVCAR-8 = tested on: OVCAR-8
NCI-H460 = tested on: NCI-H460
NCI-H23 = tested on: NCI-H23
MOLT-4 = tested on: MOLT-4
M19-MEL = tested on: M19-MEL
K562 = tested on: K562
IGROV-1 = tested on: IGROV-1
OVCAR-5 = tested on: OVCAR-5
U-251 = tested on: U-251
HL-60 = tested on: HL-60
HT-29 = tested on: HT-29
CAKI-1 = tested on: CAKI-1
RXF 631 = tested on: RXF 631
HOP-92 = tested on: HOP-92
SK-MEL-5 = tested on: SK-MEL-5
SF-539 = tested on: SF-539
TK-10 = tested on: TK-10
COLO 205 = tested on: COLO 205
DMS-114 = tested on: DMS-114
UACC-62 = tested on: UACC-62
SK-OV-3 = tested on: SK-OV-3
RXF 393 = tested on: RXF 393
HCT-15 = tested on: HCT-15
CCRF-CEM = tested on: CCRF-CEM
HCC 2998 = tested on: HCC 2998
HOP-62 = tested on: HOP-62
NCI-H522 = tested on: NCI-H522
SN12C = tested on: SN12C
KM-20L2 = tested on: KM-20L2
OVCAR-3 = tested on: OVCAR-3
NCI-H226 = tested on: NCI-H226
SR = tested on: SR
786-0 = tested on: 786-0
SF-268 = tested on: SF-268
SW-620 = tested on: SW-620
ACHN = tested on: ACHN
Malme-3M = tested on: Malme-3M
SK-MEL-2 = tested on: SK-MEL-2
RPMI-8226 = tested on: RPMI-8226
A549 = tested on: A549
SNB-19 = tested on: SNB-19
SK-MEL-28 = tested on: SK-MEL-28
LXFL 529 = tested on: LXFL 529
KM12 = tested on: KM12
UACC-257 = tested on: UACC-257
HCT-116 = tested on: HCT-116
HOP-18 = tested on: HOP-18
EKVX = tested on: EKVX
DLD-1 = tested on: DLD-1
LOX IMVI = tested on: LOX IMVI
SF-295 = tested on: SF-295
DMS-273 = tested on: DMS-273
M14 = tested on: M14
XF498 = tested on: XF498
UO-31 = tested on: UO-31
SNB-78 = tested on: SNB-78
A498 = tested on: A498
OVCAR-4 = tested on: OVCAR-4
SNB-75 = tested on: SNB-75

Structure (SMILES): C[C@H](NC(=O)n1c2ccccc2c2ccccc21)C(=O)O
- GI50 (OVCAR-8): > 100 µM (inactive)
- GI50 (NCI-H460): > 100 µM (inactive)
- GI50 (NCI-H23): > 100 µM (inactive)
- GI50 (MOLT-4): > 100 µM (inactive)
- GI50 (M19-MEL): > 100 µM (inactive)
- GI50 (K562): > 100 µM (inactive)
- GI50 (IGROV-1): > 100 µM (inactive)
- GI50 (OVCAR-5): > 100 µM (inactive)
- GI50 (U-251): > 100 µM (inactive)
- GI50 (HL-60): > 100 µM (inactive)
- GI50 (HT-29): > 100 µM (inactive)
- GI50 (CAKI-1): > 100 µM (inactive)
- GI50 (RXF 631): > 100 µM (inactive)
- GI50 (HOP-92): > 100 µM (inactive)
- GI50 (SK-MEL-5): > 100 µM (inactive)
- GI50 (SF-539): > 100 µM (inactive)
- GI50 (TK-10): > 100 µM (inactive)
- GI50 (COLO 205): > 100 µM (inactive)
- GI50 (DMS-114): > 100 µM (inactive)
- GI50 (UACC-62): > 100 µM (inactive)
- GI50 (SK-OV-3): > 100 µM (inactive)
- GI50 (RXF 393): > 100 µM (inactive)
- GI50 (HCT-15): > 100 µM
- GI50 (CCRF-CEM): > 100 µM (inactive)
- GI50 (HCC 2998): > 100 µM (inactive)
- GI50 (HOP-62): > 100 µM (inactive)
- GI50 (NCI-H522): > 100 µM (inactive)
- GI50 (SN12C): > 100 µM (inactive)
- GI50 (KM-20L2): > 100 µM (inactive)
- GI50 (OVCAR-3): > 100 µM (inactive)
- GI50 (NCI-H226): > 100 µM (inactive)
- GI50 (SR): > 100 µM (inactive)
- GI50 (786-0): > 100 µM (inactive)
- GI50 (SF-268): > 100 µM (inactive)
- GI50 (SW-620): > 100 µM (inactive)
- GI50 (ACHN): > 100 µM (inactive)
- GI50 (Malme-3M): > 100 µM (inactive)
- GI50 (SK-MEL-2): > 100 µM (inactive)
- GI50 (RPMI-8226): > 100 µM (inactive)
- GI50 (A549): > 100 µM (inactive)
- GI50 (SNB-19): > 100 µM (inactive)
- GI50 (SK-MEL-28): > 100 µM (inactive)
- GI50 (LXFL 529): > 100 µM (inactive)
- GI50 (KM12): > 100 µM (inactive)
- GI50 (UACC-257): > 100 µM (inactive)
- GI50 (HCT-116): > 100 µM (inactive)
- GI50 (HOP-18): > 100 µM (inactive)
- GI50 (EKVX): > 100 µM (inactive)
- GI50 (DLD-1): > 100 µM (inactive)
- GI50 (LOX IMVI): > 100 µM (inactive)
- GI50 (SF-295): > 100 µM (inactive)
- GI50 (DMS-273): > 100 µM (inactive)

Structure (SMILES): Cc1cc(NCCCCCCNc2cc(C)nc3ccc(Cl)cc23)c2cc(Cl)ccc2n1
- GI50 (OVCAR-8): 18.5 µM (inactive)
- GI50 (NCI-H460): 14.8 µM (inactive)
- GI50 (NCI-H23): 15 µM (inactive)
- GI50 (MOLT-4): 27.7 µM (inactive)
- GI50 (M14): > 100 µM (inactive)
- GI50 (M19-MEL): 21.4 µM (inactive)
- GI50 (K562): 2.49 µM (inactive)
- GI50 (OVCAR-5): 19.7 µM (inactive)
- GI50 (U-251): 16.9 µM (inactive)
- GI50 (HL-60): 7.4 µM (inactive)
- GI50 (HT-29): 15.2 µM (inactive)
- GI50 (CAKI-1): 33 µM (inactive)
- GI50 (RXF 631): > 100 µM (inactive)
- GI50 (SK-MEL-5): 18.3 µM (inactive)
- GI50 (SF-539): 15.9 µM (inactive)
- GI50 (TK-10): 27 µM (inactive)
- GI50 (XF498): 18.1 µM (inactive)
- GI50 (COLO 205): 18.3 µM (inactive)
- GI50 (DMS-114): 18.9 µM (inactive)
- GI50 (UACC-62): 19.5 µM (inactive)
- GI50 (SK-OV-3): > 100 µM (inactive)
- GI50 (RXF 393): 16.1 µM (inactive)
- GI50 (HCT-15): 18 µM
- GI50 (CCRF-CEM): 3.63 µM (inactive)
- GI50 (HCC 2998): 16.4 µM (inactive)
- GI50 (HOP-62): 75.5 µM (inactive)
- GI50 (NCI-H522): 17 µM (inactive)
- GI50 (SN12C): 22 µM (inactive)
- GI50 (KM-20L2): 15.8 µM (inactive)
- GI50 (OVCAR-3): 18 µM (inactive)
- GI50 (NCI-H226): > 100 µM (inactive)
- GI50 (SR): 2.09 µM (inactive)
- GI50 (786-0): 17.4 µM (inactive)
- GI50 (SF-268): 14.7 µM (inactive)
- GI50 (ACHN): 33 µM (inactive)
- GI50 (Malme-3M): 28.1 µM (inactive)
- GI50 (SK-MEL-2): 26.2 µM (inactive)
- GI50 (RPMI-8226): 47.4 µM (inactive)
- GI50 (UO-31): 23.5 µM (inactive)
- GI50 (A549): 20.8 µM (inactive)
- GI50 (SNB-19): 25.9 µM (inactive)
- GI50 (SK-MEL-28): 17.2 µM (inactive)
- GI50 (LXFL 529): > 100 µM (inactive)
- GI50 (SNB-78): 22.7 µM (inactive)
- GI50 (KM12): 17.2 µM (inactive)
- GI50 (UACC-257): 20 µM (inactive)
- GI50 (A498): > 100 µM (inactive)
- GI50 (HCT-116): 14.7 µM (inactive)
- GI50 (OVCAR-4): 20 µM (inactive)
- GI50 (EKVX): 15.8 µM (inactive)
- GI50 (DLD-1): 16.8 µM (inactive)
- GI50 (SNB-75): 17.4 µM (inactive)
- GI50 (LOX IMVI): 14.9 µM (inactive)
- GI50 (SF-295): 16.6 µM (inactive)
- GI50 (DMS-273): 20.4 µM (inactive)

Structure (SMILES): CCOC(=O)C1=NC(c2ccccc2)(c2ccccc2)OC1=C(Cl)Cl
- GI50 (OVCAR-8): > 100 µM (inactive)
- GI50 (NCI-H460): 70.6 µM (inactive)
- GI50 (NCI-H23): > 100 µM (inactive)
- GI50 (MOLT-4): 36 µM (inactive)
- GI50 (M14): 85.9 µM (inactive)
- GI50 (M19-MEL): 29 µM (inactive)
- GI50 (K562): 32 µM (inactive)
- GI50 (IGROV-1): > 100 µM (inactive)
- GI50 (OVCAR-5): 96.2 µM (inactive)
- GI50 (U-251): 74.6 µM (inactive)
- GI50 (HL-60): 11.9 µM (inactive)
- GI50 (HT-29): 32.4 µM (inactive)
- GI50 (CAKI-1): > 100 µM (inactive)
- GI50 (RXF 631): 50.9 µM (inactive)
- GI50 (HOP-92): 35.4 µM (inactive)
- GI50 (SK-MEL-5): 39.5 µM (inactive)
- GI50 (SF-539): > 100 µM (inactive)
- GI50 (TK-10): > 100 µM (inactive)
- GI50 (COLO 205): > 100 µM (inactive)
- GI50 (UACC-62): 99.8 µM (inactive)
- GI50 (SK-OV-3): > 100 µM (inactive)
- GI50 (RXF 393): 0.879 µM (active)
- GI50 (HCT-15): 70.1 µM
- GI50 (CCRF-CEM): 33.6 µM (inactive)
- GI50 (HCC 2998): 18.5 µM (inactive)
- GI50 (HOP-62): > 100 µM (inactive)
- GI50 (NCI-H522): 23.1 µM (inactive)
- GI50 (SN12C): > 100 µM (inactive)
- GI50 (KM-20L2): 49.3 µM (inactive)
- GI50 (OVCAR-3): 42.2 µM (inactive)
- GI50 (NCI-H226): > 100 µM (inactive)
- GI50 (SR): 19.8 µM (inactive)
- GI50 (786-0): > 100 µM (inactive)
- GI50 (SF-268): > 100 µM (inactive)
- GI50 (SW-620): 82.4 µM (inactive)
- GI50 (ACHN): 50.4 µM (inactive)
- GI50 (Malme-3M): 40 µM (inactive)
- GI50 (RPMI-8226): 19.1 µM (inactive)
- GI50 (UO-31): 65 µM (inactive)
- GI50 (A549): 54.6 µM (inactive)
- GI50 (SNB-19): > 100 µM (inactive)
- GI50 (SK-MEL-28): > 100 µM (inactive)
- GI50 (LXFL 529): 65.5 µM (inactive)
- GI50 (SNB-78): 96.4 µM (inactive)
- GI50 (KM12): 94 µM (inactive)
- GI50 (UACC-257): 32.4 µM (inactive)
- GI50 (A498): > 100 µM (inactive)
- GI50 (HCT-116): 29.2 µM (inactive)
- GI50 (OVCAR-4): 63 µM (inactive)
- GI50 (HOP-18): > 100 µM (inactive)
- GI50 (EKVX): 35.5 µM (inactive)
- GI50 (DLD-1): 80.7 µM (inactive)
- GI50 (SNB-75): > 100 µM (inactive)
- GI50 (LOX IMVI): 46 µM (inactive)
- GI50 (SF-295): > 100 µM (inactive)
